Like-named read-outs stand apart in the source and are kept apart here.
Assays:
Wistar rats = test: Antipyretic effect in rats (brewer yeast-induced fever); type: in vivo, rat (Wistar)
Experimental: The experiments were performed in groups of 10 Wistar rats of both sexes weighing 160-200 g. Fever was induced by 20% brewer yeast suspended in 0.9% saline solution, applied subcutaneously in a volume of 2 ml/rat distributed at various sites of the back. After 18 hours the test compound or the vehicle (control) was administered in volume of 10 ml./kg p.o. During this period the rats were fasted but received drinking water ad libitum. The rectal temperature of the animals was measured with a Thermotest thermometer 2 days before the administration of the test compound and after treatment every 60th minute. Animals with an increase of body temperature less than 0.8° C. were excluded from the experiment.
(§1) The above tests are carried out by standard methods. […] Pharmacodyn. […] A., Risley E. A., Nuss, G. W.: Proc. Soc.

rats = test: Analgesic activity "Writhing test" in rats (acetic acid i.p.); type: in vivo, rat; settings: p.o., 1 hour before acetic acid i.p.
Experimental: Rats weighing 130-170 g were administered intraperitoneally 0.75% (v/v) acetic acid in a volume of 8 ml/kg. Five minutes after treatment with acetic acid the total number of characteristic writhing reactions was counted for 10 minutes and expressed as percentage of the control group.
as §1

[1] = Acute toxicity in mice (p.o., 14 days observation); settings: mouse, in vivo, po
Experimental: The experiments were performed in CFLP white mice of both sexes of 18-22 g body weight in groups of at least 10 animals. The test compound was applied p.o. dissolved in a solution containing 0.2% Tween-80 in distilled water in a volume of 20-30 ml/kg. The observation period after treatment lasted for 14 days. Statistical evaluation was carried out as described by Litchfield-Wilcoxon's method.
The above tests are carried out by standard methods. Reference is made to the following citations: Litchfield, J. T., Wilcoxon, F.: J. Pharmacol. Exp. Ther., 96, 99-113 (1949); Newbould, B. B.: Brit. J. Pharmacol. 35, 487 (1969); Shay, H., Kemarov, S. A., Fels, S. S., Meranze, D., Gruenstein, M., Siplet, H.: Gastroenterology 5, 45 (1945); Stickney, J. C., Northup, D. W., Van Liere, E. J.: Arch. int. Pharmacodyn. 147, 113 (1964); Winter, C. A., Risley E. A., Nuss, G. W.: Proc. Soc. Exp. Biol. Med. 111, 544-547 (1962).

granulocytes = test: Measurement of chemiluminescence of granulocytes (PHA-stimulated, luminol); type: cell-based, human (healthy volunteers); settings: Homo sapiens, 0.25 h, read-out: IC50, chemiluminescence of granulocytes
Experimental: The test-compounds were dissolved in dimethyl-sulfoxide (DMSO) in a concentration of 10^-1 M, dilutions were made in the incubation medium employed. Heparinized blood (10 IU/ml) was taken from healthy volunteers. The blood was diluted with equal wolume of dextran, then the white blood cells were separated by sedimentation. The granulocytes were separated by Uromio gradient. […] The cell suspension was put in dark box for 15 min. Luminol was dissolved in concentrated NH4 OH and diluted in the following solution:
50 ml Tris-Parker medium (containing 1,2 g Tris, pH=7,4)
150 ml Parker tissue culture medium
4 ml glucose 40% w/v in water
The Luminol solution (500 μl) was measured in plastic vials and put in dark (37° C.). The reaction was started by addition of the cells and stimulating agent (Phytohaemaglutinin-PHA-10 μg/ml).
The vials were continuously and gently shaken and the PHA stimulation was measured in every 2,5 min. for 15 min. in a Beckmann LS-100 spectrometer (coincidence switched off). The percentage of the counts measured was calculated in comparison with the solvent treated control cells. At least 5 concentrations of each compound were investigated in at least 3 parallels.

[2] = PHA 10 μg/ml stimulation, luminol 32 μM, 37° C., 15 min

Row | SMILES | Maximal temperature decrease (Wistar rats; 200 mg/kg p.o.) | Analgesic effect on rats, Therapeutical Index (rats) | LD50 at 336 h [1] | IC50 (granulocytes; [2]) | Maximal temperature decrease (Wistar rats; 100 mg/kg p.o.) | IC50 (granulocytes)
1 | CC(=O)Oc1ccccc1C(=O)O [Acetylsalicylic acid, reference compound] | 1.0 °C | – | – | – | – | –
2 | COc1ccc(Cc2cnc(N)nc2N)cc1 [Example 1, 2,4-Diamino-5-(4-methoxy-benzyl)-pyrimidine] | 0.9 °C | about 8.1 | ~350 mg/kg | ~100 µM | – | –
3 | COc1cccc(Cc2cnc(N)nc2N)c1 [Example 2, 2,4-Diamino-5-(3-methoxy-benzyl)-pyrimidine] | – | about 5.9 | ~410 mg/kg | ~100 µM | – | –
4 | COc1cc(Cc2cnc(N)nc2N)cc(OC)c1 [Example 3, 2,4-Diamino-5-(3,5-dimethoxy-benzyl)-pyrimidine] | – | about 8.0 | ~800 mg/kg | – | – | –
5 | COc1ccc(Cc2cnc(N)nc2N)c(OC)c1 [Example 4, 2,4-Diamino-5-(2,4-dimethoxy-benzyl)-pyrimidine] | – | about 33.3 | ~2000 mg/kg | – | – | –
6 | COc1cccc(Cc2cnc(N)nc2N)c1OC [Example 5, 2,4-Diamino-5-(2,3-dimethoxy-benzyl)-pyrimidine] | – | about 5.0 | ~500 mg/kg | – | – | –
7 | Nc1ncc(Cc2ccc3c(c2)OCO3)c(N)n1 [Example 6, 2,4-Diamino-5-(3,4-methylenedioxy-benzyl)-pyrimidine] | – | about 57.7 | ~750 mg/kg | – | 1.0 °C | –
8 | CCOc1ccc(Cc2cnc(N)nc2N)cc1OC [Example 7, 2,4-Diamino-5-(3-methoxy-4-ethoxy-benzyl)-pyrimidine] | – | about 7.6 | ~350 mg/kg | ~1 µM | 0.7 °C | –
9 | C=CCOc1ccc(Cc2cnc(N)nc2N)cc1OC.Cl [Example 8, 2,4-Diamino-5-(3-methoxy-4-allyloxy-benzyl)-pyrimidine-hydrochloride] | – | about 42.9 | ~1500 mg/kg | ~1 µM | 0.8 °C | –
10 | CCCCOc1ccc(Cc2cnc(N)nc2N)cc1OC [Example 9, 2,4-Diamino-5-(3-methoxy-4-n-butoxy-benzyl)-pyrimidine] | – | > 125.0 | > 2000 mg/kg | ~1 µM | – | –
11 | COCCOc1ccc(Cc2cnc(N)nc2N)cc1OC [Example 10, 2,4-Diamino-5-(3-methoxy-4-methoxyethoxy-benzyl)-pyrimidine] | – | < 14.3 | < 500 mg/kg | – | – | –
12 | COc1cc(Cc2cnc(N)nc2N)ccc1OCc1ccccc1 [Example 11, 2,4-Diamino-5-(3-methoxy-4-benzyloxy-benzyl)-pyrimidine] | – | > 37.0 | > 2000 mg/kg | – | – | –
13 | Br.COc1cc(Cc2cnc(N)nc2N)ccc1O [Example 12, 2,4-Diamino-5-(3-methoxy-4-hydroxy-benzyl)-pyrimidine-hydrobromide] | – | > 40.0 | > 2000 mg/kg | – | – | –
14 | COc1ccc2c(c1)c(CC(=O)O)c(C)n2C(=O)c1ccc(Cl)cc1 [Indomethacin, 1-(p-chloro-benzoyl)-5-methoxy-2-methyl-1H-indole-3-acetic acid, reference compound] | – | 4.8 | 22.5 mg/kg | – | – | 100 µM
15 | CCCCC1C(=O)N(c2ccccc2)N(c2ccccc2)C1=O [Phenylbutazone, 3,5-dioxo-1,2-diphenyl-4-(n-butyl)-pyrazolidine, reference compound] | – | – | – | 100 µM | – | –
16 | CN1C(C(=O)Nc2ccccn2)=C(O)c2ccccc2S1(=O)=O [Piroxicam, 4-hydroxy-2-methyl-N-2-pyridyl-2H-1,2-benzothiazine-3-carboxamide-1,1-dioxide, reference compound] | – | – | – | 100 µM | – | –

Reference: patent publication US4883798A, “Pharmaceutical compositions” (EGIS Gyogyszergyar, priority 1987, dated 1989)
